Experimental data reported in patent US11666584B2, “Steroidal hormones for the treatment and prevention of wave burst arrhythmia” (ASSISTANCE PUBLIQUE—HOPITAUX DE PARIS, priority 2016, dated 2023).
Where two headings read alike, the source gives them in different places.

How the values were obtained:
[1] = characteristic of the pill's progestogen; cited from earlier work
IKr potassium channel [2] = target: T1, IKr potassium channel (Homo sapiens, UniProt Q12809)
Procedure: Statistics: ns represents p>0.1. Various tests (Chi^2 test with trend, one-way ANOVA with Tukey or Kruskal-Wallis post-test with Dunn's post-test) were used. The quantitative data are presented as a mean±standard error or median with interquartile range.
The PC1 value is obtained by analysis by main components of the variables ΔQTc (%), ΔTpTe (%) and ΔTAmp (%) and quantitatively reflects the IKr inhibition obtained three hours after taking sotalol.
The ΔQTcF, ΔTpTe and ΔTAmp were also calculated.

[3] = target: T2, androgen receptor (NR3C4) (Homo sapiens, UniProt P10275); conditions: characteristic of the progestogen; cited from earlier work
T2 sequence (P10275 1-920): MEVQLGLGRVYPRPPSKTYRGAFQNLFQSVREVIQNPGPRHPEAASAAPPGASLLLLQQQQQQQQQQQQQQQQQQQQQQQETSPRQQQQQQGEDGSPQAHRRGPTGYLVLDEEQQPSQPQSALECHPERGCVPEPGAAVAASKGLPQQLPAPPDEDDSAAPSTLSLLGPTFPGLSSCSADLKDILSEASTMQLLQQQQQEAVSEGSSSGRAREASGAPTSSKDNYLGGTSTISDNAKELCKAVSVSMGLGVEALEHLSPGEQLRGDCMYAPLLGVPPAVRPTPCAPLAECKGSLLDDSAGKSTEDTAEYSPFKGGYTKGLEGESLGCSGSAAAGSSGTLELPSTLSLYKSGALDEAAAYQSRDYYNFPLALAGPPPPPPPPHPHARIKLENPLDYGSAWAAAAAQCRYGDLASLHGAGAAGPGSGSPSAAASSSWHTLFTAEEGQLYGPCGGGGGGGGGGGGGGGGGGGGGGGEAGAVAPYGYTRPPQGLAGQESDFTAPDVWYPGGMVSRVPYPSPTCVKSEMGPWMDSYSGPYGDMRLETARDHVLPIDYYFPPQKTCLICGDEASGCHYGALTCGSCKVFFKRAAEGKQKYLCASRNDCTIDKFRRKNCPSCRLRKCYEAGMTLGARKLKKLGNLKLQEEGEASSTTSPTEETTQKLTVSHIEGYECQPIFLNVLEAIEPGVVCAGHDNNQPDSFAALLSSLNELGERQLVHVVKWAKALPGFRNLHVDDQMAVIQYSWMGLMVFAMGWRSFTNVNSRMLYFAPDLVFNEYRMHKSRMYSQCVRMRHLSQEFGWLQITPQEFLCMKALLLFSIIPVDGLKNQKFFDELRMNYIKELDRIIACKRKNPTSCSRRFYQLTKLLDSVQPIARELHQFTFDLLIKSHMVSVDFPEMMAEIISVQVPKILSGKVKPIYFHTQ

[4] = system: transgenic rabbits with a long QT interval; conditions: cited from earlier work
IKr potassium channel [5] = target: T1, IKr potassium channel; assay: ECG changes three hours after a single oral dose of 80 mg sotalol in healthy volunteers (Example 1); type: in vivo; set-up: from tissue; host or cells: heart of living human volunteers (in vivo ECG); conditions: for decrease in TAmp / increase in TpTe: H3 after 80 mg sotalol vs basal; for subjects exhibiting a double peak (notch) / subjects exhibiting a double peak (notch), proportion: after 80 mg sotalol
Procedure: Results obtained on a cohort of 995 volunteers in good health, from 18 to 60 years old, of European or North African origin, were used for the development of a marker representative of inhibition of the IKr potassium channel.
Briefly, the electrocardiogram (ECG) of the patients (each one in triplicate, for 10 seconds) was recorded after 10 minutes at rest lying on their back. A single oral dose of 80 mg of sotalol was then given to the patients and the ECG monitoring was continued. Three hours after the sotalol had been taken, the ECG was again recorded (in triplicate) after the subjects had remained lying on their back for 10 minutes.
The QTcF (QT corrected using Fridericia's formula), TpTe (interval between the first peak and the end of the T wave), TAmp (amplitude of the first peak of the T wave) and the presence of double peaks in the T wave (called notches) were quantified. The Fridericia correction (QTcF) was used to correct the QT with respect to the heart rate, in accordance with the ICH guidelines E14.
TpTe was measured using the tangent method, in triplicate, on a representative heart beat (averaged representation of an ECG of 10 seconds) on the V3, V4 and V5 derivations. In the event of a double peak of the T wave (notch), the peak taken into consideration was the first peak, even if the amplitude of the T wave was smaller for this peak. The average value obtained was retained. In the event of it being impossible to measure TpTe on V3, V4 or V5, the measurement was instead carried out on V2 (for V3), or V6 (for V4/V5).
In order to measure TAmp, positioning was on the site of the maximum amplitude of the first peak of the T wave on a representative beat (averaged representation of an ECG of 10 seconds) on the DII, V2 and V3 leads. The average of the TAmp values resulting from these three leads, and measured on three different ECGs of 10 seconds (in triplicate), was calculated and retained. If it was not possible to measure a TAmp on one of these leads (in particular because of a low value (<0.1 mV)), the V4 lead was used.
QTcF was measured using the tangent method on the DII lead for three consecutive beats and the average value of an evaluation in triplicate was retained.
For these parameters, the difference between the value obtained at H3 and the basal value was measured. This difference was expressed as percentage relative to the basal value, and the calculations were carried out such that the value calculated is positive.
The following calculations were therefore carried out: ΔQTcF (%)=(QTcF at H3−QTcF basal)/(QTcF basal)×100 ΔTpTe (%)=(TpTe at H3−TpTe basal)/(TpTe basal)×100 ΔTAmp (%)=(TAmp basal−TAmp at H3)/(TAmp basal)×100
In order to evaluate the double peaks (notches), all the ECGs were evaluated independently by two investigators. The patients were described as notchers or non-notchers, in the event of agreements between the two investigators.
The statistical analyses were carried out with the R software (https://www.r-project.org/).

torsades de pointes = assay: Clinical case: testosterone in a person with hypogonadism and arrhythmic storm on torsades de pointes (Example 3); type: in vivo, human
Procedure: Peripheral hypogonadism was identified in a person suffering from ischemic cardiopathy and from Erdheim-Chester disease with arrhythmic storm on torsades de pointes with long QT and notching (double peak (notch) of the T wave) promoted by iatrogenesis and bradycardia with more than seven episodes in less than one week.
Testosterone (Androtardyl, testosterone enantate 250 mg/ml) was administered to the patient in amounts which made it possible to maintain a testosterone level making it possible to correct their hypogonadism, the bradycardia was corrected and an implantable defibrillator was implanted as secondary prevention.

[6] = three hours after 80 mg sotalol, difference between groups (FIG. 3)
[7] = first of the two cohorts (exploration)
[8] = second of the two cohorts (replication)
[9] = three hours after single oral dose of 80 mg sotalol vs basal

T1 sequence (Q12809 whole entry): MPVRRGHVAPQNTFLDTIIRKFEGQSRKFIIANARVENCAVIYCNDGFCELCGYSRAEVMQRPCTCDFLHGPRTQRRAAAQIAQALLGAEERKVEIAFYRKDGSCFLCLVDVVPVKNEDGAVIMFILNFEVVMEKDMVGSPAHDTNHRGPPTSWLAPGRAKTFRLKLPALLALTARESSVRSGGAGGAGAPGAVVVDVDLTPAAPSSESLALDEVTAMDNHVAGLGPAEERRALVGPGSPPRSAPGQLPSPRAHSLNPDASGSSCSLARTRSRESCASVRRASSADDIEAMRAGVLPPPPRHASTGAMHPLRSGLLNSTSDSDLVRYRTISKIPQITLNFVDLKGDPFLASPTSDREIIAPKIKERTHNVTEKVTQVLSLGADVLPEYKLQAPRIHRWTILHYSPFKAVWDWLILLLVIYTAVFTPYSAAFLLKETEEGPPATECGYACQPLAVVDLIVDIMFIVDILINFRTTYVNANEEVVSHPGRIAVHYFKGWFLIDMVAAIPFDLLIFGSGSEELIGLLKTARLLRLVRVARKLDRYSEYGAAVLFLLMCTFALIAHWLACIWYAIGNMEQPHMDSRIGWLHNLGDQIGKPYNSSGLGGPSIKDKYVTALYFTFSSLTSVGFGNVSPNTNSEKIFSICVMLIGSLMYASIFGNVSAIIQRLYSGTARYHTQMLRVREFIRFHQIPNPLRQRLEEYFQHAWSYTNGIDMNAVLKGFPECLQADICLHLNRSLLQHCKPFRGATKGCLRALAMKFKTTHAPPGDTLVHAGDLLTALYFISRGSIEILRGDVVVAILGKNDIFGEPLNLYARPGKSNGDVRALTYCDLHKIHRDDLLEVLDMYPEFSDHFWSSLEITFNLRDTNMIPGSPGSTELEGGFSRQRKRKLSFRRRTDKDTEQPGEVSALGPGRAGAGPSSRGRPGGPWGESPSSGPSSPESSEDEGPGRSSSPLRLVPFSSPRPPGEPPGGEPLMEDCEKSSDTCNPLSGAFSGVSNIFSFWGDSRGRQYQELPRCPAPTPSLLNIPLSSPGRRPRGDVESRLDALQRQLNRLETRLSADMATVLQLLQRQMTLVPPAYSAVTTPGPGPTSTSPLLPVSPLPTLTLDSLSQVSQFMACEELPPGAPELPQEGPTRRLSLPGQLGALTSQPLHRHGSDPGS

For `C#C[C@]1(O)CC[C@H]2[C@@H]3CCC4=CCCC[C@@H]4[C@H]3C(=C)C[C@@]21CC` [desogestrel], the Progestogenic activity [1] is listed as “High”, the “incidence of double peaks (notches)” value (IKr potassium channel [2]; female, human, in vivo, 3 h) is listed as 7.3% and the “effect with regard to the appearance of a double peak (notch) of the T wave” value (IKr potassium channel [2]; in vivo) is listed as “protective”. For the same compound, the “risk of drug-induced IKr inhibition” value (IKr potassium channel [2]; in vivo) was “neutral”.

For `C[C@]12CCC3=C4CCC(=O)C=C4CC[C@H]3[C@@H]1CC[C@@]2(O)CC#N` [dienogest], the Androgenicity [3] is listed as “low androgenic activity, or even an anti-androgenic activity”.

In the case of `C[C@]12CCC(=O)C=C1[C@@H]1C[C@@H]1[C@H]1[C@@H]3[C@@H]4C[C@@H]4[C@@]4(CCC(=O)O4)[C@@]3(C)CC[C@@H]12` [drospirenone], the Progestogenic activity [1] is given as “Intermediate”, the “risk of drug-induced IKr inhibition” value (IKr potassium channel [2]; conclusion in words, by pill type) is given as “greatest risk” and the “increase in QTcF greater than that of patients taking levonorgestrel” value (IKr potassium channel [2]; [6]) is given as 7.0 ± 2.7 ms. The “increase in QTcF greater than that of patients without hormonal contraception” value (IKr potassium channel [2]; [6]) was 6.6 ± 2.6 ms and the “incidence of double peaks (notches)” value (IKr potassium channel [2]; three hours after administration of Sotalol, by pill type (FIG. 4)) was 25.8%.

In the case of `C#C[C@]1(O)C=C[C@H]2[C@@H]3CCC4=CC(=O)CC[C@@H]4[C@H]3CC[C@@]21CC` [gestodene], the Progestogenic activity [1] is given as “High”, the Androgenicity [3] is given as “Intermediate/variable” and the “incidence of double peaks (notches)” value (IKr potassium channel [2]; female, human, in vivo, 3 h) is given as 23.5%.

In the case of `C#C[C@]1(O)CC[C@H]2[C@@H]3CCC4=CC(=O)CC[C@@H]4[C@H]3CC[C@@]21CC` [levonorgestrel], the Progestogenic activity [1] is listed as “High”, the “effect with regard to the increase in QT” value (IKr potassium channel [2]; conclusion in words) is listed as “protective” and the “incidence of double peaks (notches)” value (IKr potassium channel [2]; female, human, in vivo, 3 h) is listed as 16.4%. For the same compound, the “risk of drug-induced IKr inhibition” value (IKr potassium channel [2]; in vivo) was “neutral”.

For `CC(=O)[C@H]1CC[C@H]2[C@@H]3CCC4=CC(=O)CC[C@]4(C)[C@H]3CC[C@]12C` [progesterone], the “effect on sudden death” value [4] is listed as “protective effect”.

With `CC(C)NCC(O)c1ccc(NS(C)(=O)=O)cc1` (centres unmarked) [sotalol] the “decrease in TAmp” value (IKr potassium channel [5]; exploration cohort) was 13.6±15.7%, the “increase in TpTe” value (IKr potassium channel [5]; exploration cohort) was 14.2±15.6% and the “subjects exhibiting a double peak (notch)” value (IKr potassium channel [5]; [7]) was 40 subjects. For the same compound, the “subjects exhibiting a double peak (notch), proportion” value (IKr potassium channel [5]; [7]) was 8%, the PC1 value (IKr potassium channel [5]; non-notchers, exploration cohort) was 0.3±1.1 and the PC1 value (IKr potassium channel [5]; non-notchers, replication cohort) was 0.3±1.1. For the same compound, the PC1 value (IKr potassium channel [5]; notchers, exploration cohort, PC1 correlates negatively with ΔQTc, ΔTAmp, ΔTpTe) was −2.5±1.5, the PC1 value (IKr potassium channel [5]; notchers, replication cohort) was −2.3±1.8 and the “decrease in TAmp” value (IKr potassium channel [5]; replication cohort) was 12.8±15.3%. The “increase in TpTe” value (IKr potassium channel [5]; replication cohort) was 15.9±20.5%, the “subjects exhibiting a double peak (notch)” value (IKr potassium channel [5]; [8]) was 51 subjects and the “subjects exhibiting a double peak (notch), proportion” value (IKr potassium channel [5]; [8]) was 10%. For the same compound, the “absolute change in the duration of QTcF” value (IKr potassium channel [5]; [9]) was 21.4 ± 14 ms, the “relative change in the duration of QTcF” value (IKr potassium channel [5]; [9]) was 5.5±3.5% and the “average QTc increase observed with sotalol” value (IKr potassium channel [2]; study of the present application, as summarised) was 20 ms.

For `CCCCCCC(=O)O[C@H]1CC[C@H]2[C@@H]3CCC4=CC(=O)CC[C@]4(C)[C@H]3CC[C@]12C` [testosterone, testosterone enantate], the repolarization (torsades de pointes; following the introduction of testosterone, one patient) was “normalized” and the “recurrence of torsades de pointes (defibrillator monitoring)” value (torsades de pointes; three months following the introduction of testosterone, despite reintroduction of QTc-prolonging drug (Vemurafenob)) was “absence of recurrence of torsades de pointes”.
